From patent US9751854B2 (Millennium Pharmaceuticals, Inc., priority 2014, dated 2017)
pIC50: −log10 of the molar value.

How the values were obtained:
[1] = tested on: PC9 cell line; assay: Cellular anti-proliferative assay of VPS34 inhibitors in combination with a second therapeutic agent (Cell Titer Glo, 72 hrs); assay type: cell-based, human
Procedure: (§1) Example 57: Cellular Assay for Anti-proliferative Activity of VPS34 Inhibitors in Combination with a Second Therapeutic Agent
(§2) Cells were plated in 25 μl of media in 384 well plates at 1,000 cells per well (A431, PC9, and […] cell lines), 1,500 cells per well (NCI-H1975) or 2,000 cells per well (NCI-H1650). The plates were incubated for 24 hrs at 37° C., 6% CO2. The test compounds (see Table 38 below) were diluted serially, and 62.5 nL of each compound solution (or DMSO, if it is a single agent experiment) is added so the total added to the cells is 125 nL. Cell plates were incubated for 72 hrs at 37° C., 6% CO2. Cell Titer Glo reagent (Promega) was added. The plates were then incubated for 10 minutes at room temperature before luminescence was read on a plate reader such as the Pherastar Plus, Pherastar FS, or LEADSeeker imaging system.
(§3) Bliss antagonism was defined similarly.
(§4) Bliss dependence was defined as the percent cell survival at a certain dose combination divided by the percent cell survival predicted by Bliss independence. More specifically, the Bliss dependence is vAB/(vA*vB), where vAB is the viability with drug A and drug B added, while vA and vB are the viabilities with each drug alone. The dose for the combination used in this study is the inflection point for each drug alone.
(§5) Another way to evaluate additivity is through consideration of Loewe additivity. A difference between Bliss independence and Loewe additivity evaluations of drug combination data is that Bliss independence evaluates whether two drugs interact at all (the null hypothesis is that the mechanisms are entirely independent) and Loewe additivity evaluates whether two drugs interact in an additive fashion (the null hypothesis is that the two drugs work by identical mechanisms). For Bliss independence, the boundary between additivity and synergy must be measured. For Loewe additivity, this boundary is assumed to be at a value of 1. Thus, Bliss independence provides a boundary between antagonism and synergy or additivity. Loewe additivity provides a boundary between synergy and independence or antagonism.
(§6) Synergy can also be measured by nonlinear blending synergy. Nonlinear blending synergy [Peterson, J. J. and Novik, S. J. J Recept Signal Transduct Res, 27, 12-146 (2007))] is found by considering the percent cell death values along the nonlinear blending plot. If the maximum cell death occurs between the endpoints, then the blending synergy is the difference between the maximum cell death for the combined drugs and the maximum cell death for the either drug alone.
(§7) A derivative of Loewe additivity is the Combination Index, I (see Chou T. C., Talalay P. Adv. Enzyme Reg., 22: 27-55 (1984) and Berenbaum M. C. J. Theor. Biol., 114:413-431 (1985)). This measure is based on the shape of the isobologram which represents 50% viability (for a review of the use of isobolograms in analysis of drug combinations, see Tallarida, R. J. J. Pharm. Exp. Therap. 319:1-7 (2006)).
(§8) The results in Table 38A were summarized by categorizing the Combination Index, I. A mean Combination Index in the range (0.7-1.3) is classified as Additivity. A mean in the range (0-0.7) is classified as Synergy. A mean in the range (1.3-2) is classified as Subadditivity. A mean greater than 2 is classified as Antagonism. […] In this case, the Nonlinear Blending Synergy is used instead to generate a call (Table 38B). The categorization is similar to the Combination Index. A Nonlinear Blending Synergy within the range (−20, 20) is classified as Additive. A value below −20 is classified as Antagonism, while a value above 20 is classified as Synergy.

[2] = tested on: NCI-H1650 cell line; assay: as above; assay type: cell-based, human; conditions: NCI H-1650; for Blending Synergy: in combination with Erlotinib (Compound Y)
Procedure: as §1, §2, §3, §4, §5, §6, §7, §8

[3] = tested on: NCI-H1975 cell line; assay: as above; assay type: cell-based, human
Procedure: as §1, §2, §3, §4, §5, §6, §7, §8

[4] = tested on: A431 cell line; assay: as above; assay type: cell-based
Procedure: as §1, §2, §3, §4, §5, §6, §7, §8

[5] = target: human VPS34 (Homo sapiens (Human), UniProt Q8NEB9); assay: Human VPS34 enzyme assay (Adapta TR-FRET ADP detection); assay type: biochemical; conditions: IC50 range class
Sequence of human VPS34 (Q8NEB9 whole entry): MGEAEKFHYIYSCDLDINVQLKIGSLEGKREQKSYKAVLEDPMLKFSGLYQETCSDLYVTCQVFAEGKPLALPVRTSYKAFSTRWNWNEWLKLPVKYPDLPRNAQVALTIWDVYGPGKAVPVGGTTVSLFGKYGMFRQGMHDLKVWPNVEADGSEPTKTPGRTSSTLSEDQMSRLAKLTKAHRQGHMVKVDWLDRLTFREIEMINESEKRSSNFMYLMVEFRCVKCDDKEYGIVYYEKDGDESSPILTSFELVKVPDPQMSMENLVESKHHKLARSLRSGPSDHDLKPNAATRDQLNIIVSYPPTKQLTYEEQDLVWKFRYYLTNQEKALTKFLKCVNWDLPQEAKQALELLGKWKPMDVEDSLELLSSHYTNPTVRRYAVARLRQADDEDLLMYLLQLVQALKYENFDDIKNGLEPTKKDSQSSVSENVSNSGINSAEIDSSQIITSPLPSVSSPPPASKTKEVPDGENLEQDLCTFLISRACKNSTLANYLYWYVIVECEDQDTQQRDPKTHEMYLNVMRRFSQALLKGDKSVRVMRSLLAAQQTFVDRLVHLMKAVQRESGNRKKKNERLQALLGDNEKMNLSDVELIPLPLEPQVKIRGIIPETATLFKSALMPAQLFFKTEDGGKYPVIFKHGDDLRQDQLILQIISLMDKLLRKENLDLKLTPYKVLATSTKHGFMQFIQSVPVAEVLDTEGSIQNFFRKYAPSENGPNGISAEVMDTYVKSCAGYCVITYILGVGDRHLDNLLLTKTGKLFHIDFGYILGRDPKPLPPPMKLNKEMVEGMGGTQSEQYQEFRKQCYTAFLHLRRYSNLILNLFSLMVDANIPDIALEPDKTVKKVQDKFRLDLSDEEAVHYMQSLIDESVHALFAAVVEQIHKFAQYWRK

[6] = in combination with AZD9291 (Compound Y)
[7] = in combination with AZD9291, call from Combination Index
[8] = in combination with Afatinib (Compound Y)
[9] = in combination with Afatinib, call from Combination Index
[10] = in combination with CO-1686 (Compound Y)
[11] = in combination with CO-1686, call from Combination Index
[12] = in combination with Erlotinib (Compound Y)
[13] = in combination with Erlotinib, call from Combination Index

pIC50 [5]	Compound	Combination Index [1, 6]	Meaning [1, 7]	Combination Index [1, 8]	Meaning [1, 9]	Combination Index [1, 10]	Meaning [1, 11]	Combination Index [1, 12]	Meaning [1, 13]	Combination Index [2, 6]	Combination Index [2, 8]	Combination Index [2, 10]	Blending Synergy [2]	Combination Index [3, 6]	Combination Index [3, 8]	Combination Index [3, 10]	Combination Index [4, 8]	Meaning [4, 9]	Combination Index [4, 10]	Meaning [4, 11]	further results
> 8.00	CC(=O)Nc1cc(-c2cnc(C)c(NS(=O)(=O)c3ccc(F)cc3F)c2)ccn1 [Compound I-41, N-(5-{[(2,4-difluorophenyl)sulfonyl]amino}-6-methyl-3,4′-bipyridin-2′-yl)acetamide]	0.92	Additivity (A mean Combination Index in the range (0.7-1.3) is classified as Additivity)	1.02	Additivity (A mean Combination Index in the range (0.7-1.3) is classified as Additivity)	0.84	Additivity (A mean Combination Index in the range (0.7-1.3) is classified as Additivity)	1.02	Additivity (A mean Combination Index in the range (0.7-1.3) is classified as Additivity)	0.92	0.72	0.58	20.5	0.45	0.58	0.51	0.24	Synergy (A mean in the range (0-0.7) is classified as Synergy)	0.74	Additivity (A mean Combination Index in the range (0.7-1.3) is classified as Additivity)	Combination Index [4, 6]: 0.62; Meaning [4, 7]: Synergy (A mean in the range (0-0.7) is classified as Synergy); Combination Index [4, 12]: 0.38; Meaning [4, 13]: Synergy (A mean in the range (0-0.7) is classified as Synergy)
> 8.00	CC(=O)Nc1cc(-c2cnc(C)c(NS(=O)(=O)c3ccc(Cl)cc3F)c2)ccn1 [Compound I-94, N-(5-{[(4-chloro-2-fluorophenyl)sulfonyl]amino}-6-methyl-3,4′-bipyridin-2′-yl)acetamide]			1.04	Additivity (A mean Combination Index in the range (0.7-1.3) is classified as Additivity)			0.91	Additivity (A mean Combination Index in the range (0.7-1.3) is classified as Additivity)		0.65		23.69		0.54		0.23	Synergy (A mean in the range (0-0.7) is classified as Synergy)			Combination Index [4, 12]: 0.38; Meaning [4, 13]: Synergy (A mean in the range (0-0.7) is classified as Synergy)
> 8.00	Cc1c(-c2ccnc(NC(=O)C3CC3)c2)cnc(Cl)c1NS(=O)(=O)c1ccc(F)cc1F [Compound I-308, N-(6-chloro-5-{[(2,4-difluorophenyl)sulfonyl]amino}-4-methyl-3,4′-bipyridin-2′-yl)cyclopropanecarboxamide]	1.33	Subadditivity (A mean in the range (1.3-2) is classified as Subadditivity)	1.49	Subadditivity (A mean in the range (1.3-2) is classified as Subadditivity)	1.19	Additivity (A mean Combination Index in the range (0.7-1.3) is classified as Additivity)	1.36	Subadditivity (A mean in the range (1.3-2) is classified as Subadditivity)	0.53	0.55	0.36	27.0	0.72	0.84	0.60			0.88	Additivity (A mean Combination Index in the range (0.7-1.3) is classified as Additivity)	Blending Synergy [4, 6]: 10.2; Meaning ([4]; in combination with AZD9291, call from Nonlinear Blending Synergy): Additivity; Blending Synergy [4, 8]: 11.2; Meaning ([4]; in combination with Afatinib, call from Nonlinear Blending Synergy): Additivity; Blending Synergy [4, 12]: 15.2; Meaning ([4]; in combination with Erlotinib, call from Nonlinear Blending Synergy): Additivity
